Where “and” joins values, the source holds several entries; their conditions need not be identical. Equal entries are not always repeated. Where two headings read alike, the source gives them in different places.
Tests used:
[1] = biological target: T1, native (untagged) murine PKCβI (Mus musculus, UniProt P68404); test: FPCBA competition with probe 1, native PKCβI in HEK293 cells; format: binding; settings: read-out: Cellular Ki for native PKCβI (95% confidence interval)
T1 construct: For coexpression of full-length unmodified PKC proteins with mVenus as an independent marker; expressed in transfected cells; host or cells: HEK293 (transient, pIRES-mVenus)

[2] = biological target: native (untagged) murine PKCθ (Mus musculus, UniProt Q02111); test: FPCBA competition with probe 1, native PKCθ in HEK293 cells; format: binding; parameters: expressed in transfected cells; host or cells: HEK293 (ATCC CRL-1573), transient transfection with pIRES-mVenus carrying the PKC gene; settings: read-out: Cellular Ki for native PKCθ (95% confidence interval)
Jurkat lymphocytes = test: Cytotoxicity assay, Jurkat lymphocytes, 48 h, flow cytometry (Example 3); format: cell-based
Description: […]. Where noted, 2×BIM1 (4 μM) was included.

[3] = biological target: T2, native (untagged) murine PKCζ (Mus musculus, UniProt Q02956); test: FPCBA competition with probe 1, native PKCζ in HEK293 cells; format: binding; parameters: expressed in transfected cells; host or cells: HEK293 (ATCC CRL-1573), transient transfection with pIRES-mVenus carrying the PKC gene
T2 sequence (Q02956 1-592): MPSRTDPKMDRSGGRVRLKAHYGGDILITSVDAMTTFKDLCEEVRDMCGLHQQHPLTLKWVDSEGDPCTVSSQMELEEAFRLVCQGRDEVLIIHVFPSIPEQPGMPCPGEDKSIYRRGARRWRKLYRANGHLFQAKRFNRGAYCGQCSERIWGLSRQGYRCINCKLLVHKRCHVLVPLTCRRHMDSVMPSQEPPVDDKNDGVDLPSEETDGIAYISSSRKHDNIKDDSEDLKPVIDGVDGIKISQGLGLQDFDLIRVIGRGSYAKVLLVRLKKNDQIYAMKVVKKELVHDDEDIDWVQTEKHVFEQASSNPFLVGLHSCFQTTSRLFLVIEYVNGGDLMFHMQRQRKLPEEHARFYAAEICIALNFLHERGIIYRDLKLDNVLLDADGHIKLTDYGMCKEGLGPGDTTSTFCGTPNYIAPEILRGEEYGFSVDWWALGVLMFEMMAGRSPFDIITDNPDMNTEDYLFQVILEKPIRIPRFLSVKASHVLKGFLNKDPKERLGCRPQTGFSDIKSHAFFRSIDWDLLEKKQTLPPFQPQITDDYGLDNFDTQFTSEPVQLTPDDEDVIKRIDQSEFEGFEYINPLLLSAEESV

[4] = biological target: native (untagged) murine PKCγ (Mus musculus, UniProt P63318); test: FPCBA competition with probe 1, native PKCγ in HEK293 cells; format: binding; parameters: For coexpression of full-length unmodified PKC proteins with mVenus as an independent marker; expressed in transfected cells; host or cells: HEK293 (transient, pIRES-mVenus); settings: read-out: Cellular Ki for native PKCγ (95% confidence interval)
[5] = biological target: T3, native (untagged) murine PKCδ (Mus musculus, UniProt P28867); test: FPCBA competition with probe 1, native PKCδ in HEK293 cells; format: binding; settings: read-out: Cellular Ki for native PKCδ (95% confidence interval)
T3 construct: For coexpression of full-length unmodified PKC proteins with mVenus as an independent marker; expressed in transfected cells; host or cells: HEK293 (transient, pIRES-mVenus)

[6] = biological target: T4, native (untagged) murine PKCε (Mus musculus, UniProt P16054); test: FPCBA competition with probe 1, native PKCε in HEK293 cells; format: binding; parameters: For coexpression of full-length unmodified PKC proteins with mVenus as an independent marker; expressed in transfected cells; host or cells: HEK293 (transient, pIRES-mVenus); settings: read-out: Cellular Ki for native PKCε (95% confidence interval)
T4 sequence (P16054 1-737): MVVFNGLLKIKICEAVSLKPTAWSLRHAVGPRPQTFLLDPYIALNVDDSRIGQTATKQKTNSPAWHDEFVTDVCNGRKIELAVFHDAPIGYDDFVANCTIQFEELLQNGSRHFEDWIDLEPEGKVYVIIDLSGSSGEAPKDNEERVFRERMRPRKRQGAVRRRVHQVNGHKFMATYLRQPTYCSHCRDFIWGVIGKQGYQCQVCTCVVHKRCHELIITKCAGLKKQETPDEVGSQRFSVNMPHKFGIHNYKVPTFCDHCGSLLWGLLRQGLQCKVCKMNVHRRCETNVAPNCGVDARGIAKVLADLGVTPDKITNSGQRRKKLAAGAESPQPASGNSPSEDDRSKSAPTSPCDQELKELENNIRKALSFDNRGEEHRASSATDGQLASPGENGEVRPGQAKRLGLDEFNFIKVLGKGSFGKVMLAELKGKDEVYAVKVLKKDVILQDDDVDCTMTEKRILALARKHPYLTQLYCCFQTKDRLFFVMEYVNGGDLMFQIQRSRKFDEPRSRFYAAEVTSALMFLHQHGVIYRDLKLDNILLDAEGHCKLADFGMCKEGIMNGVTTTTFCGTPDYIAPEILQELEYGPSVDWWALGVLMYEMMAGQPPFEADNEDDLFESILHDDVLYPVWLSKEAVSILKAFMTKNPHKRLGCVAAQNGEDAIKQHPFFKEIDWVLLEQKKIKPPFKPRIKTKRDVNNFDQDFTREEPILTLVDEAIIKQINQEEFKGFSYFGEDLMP

PKCδ = settings: read-out: Biochemical Ki, PKCδ; cited from earlier work
PKC proteins = settings: cited from earlier work
[7] = biological target: native (untagged) murine PKCη (Mus musculus, UniProt P23298); test: FPCBA competition with probe 1, native PKCη in HEK293 cells; format: binding; parameters: expressed in transfected cells; host or cells: HEK293 (ATCC CRL-1573), transient transfection with pIRES-mVenus carrying the PKC gene; settings: read-out: Cellular Ki for native PKCη (95% confidence interval)
HEK293 cells = test: Cytotoxicity assay, HEK293 cells, 48 h, flow cytometry (Example 3); settings: concentrations of ≤10 μM
Description: As a preliminary assessment of their ability to activate PKCs, we evaluated the cytotoxicity of 1-3 towards HEK293 and Jurkat cells.
Where noted, 2×BIM1 (4 μM) was included. These diluted solutions of compounds (100 μL) were added to each well of a 96-well plate containing cells in medium (100 μL) in triplicate. For Jurkat lymphocytes, cells were seeded in fresh complete RPMI medium (10% FBS, 1% Pen/Strep) at 4.5×10^5 cells/mL (2× stock, 100 μL per well, [DMSO]=0.2%). […] Cell culture media (100 μL) was carefully removed from each well followed by the addition of the diluted compound solutions (2×, 100 μL) in triplicate.

mouse PKCδ-mVenus = mouse PKCδ-mVenus (Mus musculus, UniProt P28867); test: Apparent cellular Kd by flow cytometry, HEK293 cells overexpressing PKCδ-mVenus (Example 2)
mouse PKCη-mVenus = mouse PKCη-mVenus (Mus musculus, UniProt P23298); test: Apparent cellular Kd by flow cytometry, HEK293 cells overexpressing PKCη-mVenus (Example 2)
mouse PKCγ-mVenus = mouse PKCγ-mVenus (Mus musculus, UniProt P63318); test: Apparent cellular Kd by flow cytometry, HEK293 cells overexpressing PKCγ-mVenus (Example 2)
mouse PKCε-mVenus = biological target: T5, mouse PKCε-mVenus (Mus musculus, UniProt P16054); test: Apparent cellular Kd by flow cytometry, HEK293 cells overexpressing PKCε-mVenus (Example 2)
T5 sequence (P16054 1-737): T4 sequence (P16054 1-737)

mouse PKCθ-mVenus = mouse PKCθ-mVenus (Mus musculus, UniProt Q02111); test: Apparent cellular Kd by flow cytometry, HEK293 cells overexpressing PKCθ-mVenus (Example 2)
mouse PKCβI-mVenus = biological target: T6, mouse PKCβI-mVenus (Mus musculus, UniProt P68404); test: Apparent cellular Kd by flow cytometry, HEK293 cells overexpressing PKCβI-mVenus (Example 2); format: binding
T6 construct: eight plasmids encoding full length mouse PKC isozymes fused to; expressed in transfected cells; host or cells: HEK293
Description: The apparent Kd values of these fluorescent probes were measured using different PKC isozymes (e.g., PKCβI, FIGS. 20A-20D). HEK293 cells were transfected to overexpress PKCβ-mVenus and treated with probes in the presence of verapamil (100 μM) as an inhibitor of efflux.

mouse PKCα-mVenus = mouse PKCα-mVenus (Mus musculus, UniProt P20444); test: Apparent cellular Kd by flow cytometry, HEK293 cells overexpressing PKCα-mVenus (Example 2)

T3 sequence (P28867 whole entry): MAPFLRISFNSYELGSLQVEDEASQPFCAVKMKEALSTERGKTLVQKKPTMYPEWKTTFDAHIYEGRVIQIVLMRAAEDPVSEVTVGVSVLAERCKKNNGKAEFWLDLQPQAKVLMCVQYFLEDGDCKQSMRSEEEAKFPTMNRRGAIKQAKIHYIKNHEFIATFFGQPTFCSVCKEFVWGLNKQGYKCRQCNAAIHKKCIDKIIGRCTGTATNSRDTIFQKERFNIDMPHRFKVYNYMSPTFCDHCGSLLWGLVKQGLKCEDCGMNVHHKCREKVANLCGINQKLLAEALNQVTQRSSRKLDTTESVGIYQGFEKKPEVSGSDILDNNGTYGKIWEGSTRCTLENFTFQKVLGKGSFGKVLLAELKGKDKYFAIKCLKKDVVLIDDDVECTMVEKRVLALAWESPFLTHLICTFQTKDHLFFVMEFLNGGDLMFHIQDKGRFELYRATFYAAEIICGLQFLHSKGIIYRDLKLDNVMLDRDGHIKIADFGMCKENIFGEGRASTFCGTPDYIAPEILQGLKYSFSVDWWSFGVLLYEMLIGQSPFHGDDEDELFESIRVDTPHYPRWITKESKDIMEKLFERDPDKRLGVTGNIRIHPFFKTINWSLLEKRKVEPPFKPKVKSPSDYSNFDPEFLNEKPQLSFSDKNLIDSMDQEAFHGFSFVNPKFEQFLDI
T6 sequence (P68404 whole entry, the tested form may be a part): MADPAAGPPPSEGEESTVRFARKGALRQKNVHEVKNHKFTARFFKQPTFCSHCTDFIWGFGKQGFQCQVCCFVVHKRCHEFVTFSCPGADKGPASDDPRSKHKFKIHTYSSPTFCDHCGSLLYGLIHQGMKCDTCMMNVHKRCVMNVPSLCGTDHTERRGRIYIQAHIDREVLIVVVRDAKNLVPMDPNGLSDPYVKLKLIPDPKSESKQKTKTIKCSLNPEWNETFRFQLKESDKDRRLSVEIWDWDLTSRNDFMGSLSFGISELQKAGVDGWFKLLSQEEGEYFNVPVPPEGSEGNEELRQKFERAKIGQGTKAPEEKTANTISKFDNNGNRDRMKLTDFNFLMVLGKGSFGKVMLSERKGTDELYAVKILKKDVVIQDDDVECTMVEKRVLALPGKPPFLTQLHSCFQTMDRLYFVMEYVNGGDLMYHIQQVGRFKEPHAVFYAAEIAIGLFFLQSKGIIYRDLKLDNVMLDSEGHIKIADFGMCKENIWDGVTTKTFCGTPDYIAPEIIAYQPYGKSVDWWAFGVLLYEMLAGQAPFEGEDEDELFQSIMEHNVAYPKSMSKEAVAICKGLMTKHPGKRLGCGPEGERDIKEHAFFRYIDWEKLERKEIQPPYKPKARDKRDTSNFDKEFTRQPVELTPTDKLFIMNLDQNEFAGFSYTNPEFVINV
Sequence of mouse PKCη-mVenus (P23298 whole entry): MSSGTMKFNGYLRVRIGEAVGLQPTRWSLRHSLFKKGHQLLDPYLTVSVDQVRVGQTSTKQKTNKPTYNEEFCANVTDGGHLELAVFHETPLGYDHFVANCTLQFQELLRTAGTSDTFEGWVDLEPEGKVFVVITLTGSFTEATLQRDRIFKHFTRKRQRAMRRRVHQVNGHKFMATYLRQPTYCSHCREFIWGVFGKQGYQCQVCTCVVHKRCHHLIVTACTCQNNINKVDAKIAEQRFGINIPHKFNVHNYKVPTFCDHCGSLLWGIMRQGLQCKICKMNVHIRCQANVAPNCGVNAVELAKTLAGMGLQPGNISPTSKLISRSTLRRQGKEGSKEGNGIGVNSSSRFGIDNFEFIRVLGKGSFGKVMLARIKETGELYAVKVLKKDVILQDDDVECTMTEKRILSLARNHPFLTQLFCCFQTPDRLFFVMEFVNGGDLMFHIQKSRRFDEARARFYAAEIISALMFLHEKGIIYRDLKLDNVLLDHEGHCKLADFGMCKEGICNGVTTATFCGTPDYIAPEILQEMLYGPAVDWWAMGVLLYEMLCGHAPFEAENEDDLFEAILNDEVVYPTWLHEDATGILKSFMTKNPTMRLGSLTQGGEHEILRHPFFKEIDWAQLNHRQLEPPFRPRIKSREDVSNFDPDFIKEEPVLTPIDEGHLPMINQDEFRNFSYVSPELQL
Sequence of native (untagged) murine PKCη (P23298 whole entry): as above
T1 sequence (P68404 2-673 isoform P68404-2): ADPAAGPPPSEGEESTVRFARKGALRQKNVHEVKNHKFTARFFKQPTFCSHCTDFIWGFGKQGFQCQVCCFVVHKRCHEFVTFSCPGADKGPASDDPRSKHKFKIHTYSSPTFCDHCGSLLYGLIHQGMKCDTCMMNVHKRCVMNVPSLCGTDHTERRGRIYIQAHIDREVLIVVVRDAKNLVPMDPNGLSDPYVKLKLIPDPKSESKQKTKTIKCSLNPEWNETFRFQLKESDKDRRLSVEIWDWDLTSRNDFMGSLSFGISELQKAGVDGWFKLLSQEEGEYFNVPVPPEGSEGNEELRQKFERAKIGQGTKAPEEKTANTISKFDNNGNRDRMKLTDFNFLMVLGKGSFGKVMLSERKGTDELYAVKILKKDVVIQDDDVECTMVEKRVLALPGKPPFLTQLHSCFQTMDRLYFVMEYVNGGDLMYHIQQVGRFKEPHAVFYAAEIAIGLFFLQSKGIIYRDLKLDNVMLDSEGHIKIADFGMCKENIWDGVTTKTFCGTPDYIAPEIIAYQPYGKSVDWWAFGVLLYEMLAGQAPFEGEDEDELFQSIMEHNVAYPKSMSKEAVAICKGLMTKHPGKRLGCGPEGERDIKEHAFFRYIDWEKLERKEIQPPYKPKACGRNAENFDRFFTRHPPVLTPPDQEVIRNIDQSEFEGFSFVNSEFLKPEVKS
Sequence of mouse PKCδ-mVenus (P28867 whole entry): as the sequence (P28867 whole entry) above

Q: What does the source list for `CCCC(=O)O[C@@H]1[C@@H](C)[C@@]2(O)[C@@H](C=C(CO)C[C@]3(O)C(=O)C(C)=C[C@@H]23)[C@@H]2C(C)(C)[C@]12OC(=O)CCC` [PDBu, phorbol 12,13-dibutyrate]?
A: Ki [1]: 14 nM; Ki [2]: 50 nM; effect of BIM1 on cytotoxicity towards Jurkat lymphocytes (Jurkat lymphocytes; BIM1 2 μM): completely blocked; IC50 (Jurkat lymphocytes; read-out: cytotoxicity towards Jurkat lymphocytes, IC50): 2 nM; Cellular Ki for native PKCζ [3]: No binding; Ki [4]: 44 nM; Ki [5]: 32 nM and 50 nM; Ki [6]: 55 nM; Ki (PKCδ): […]; Kd (PKC proteins; in the presence of phospholipids): ~1 nM; Kd (PKC proteins; without phospholipids): ~160 nM; Ki [7]: 14 nM; toxicity towards HEK293 cells (HEK293 cells): non-toxic

Q: Which Kd (mouse PKCδ-mVenus) does the source give for `CCN(CCCCCCCCCCCCNC(=O)c1cc2cc(F)c(O)c(F)c2oc1=O)C(=O)O[C@@]12[C@H](O)[C@@H](C)[C@@]3(O)[C@@H](C=C(CO)C[C@]4(O)C(=O)C(C)=C[C@@H]34)[C@@H]1C2(C)C` [probe 47, (1aR,1bS,4aR,7aS,7bS,8R,9R,9aS)-4a,7b,9-trihydroxy-3-(hydroxymethyl)-1,1,6,8-tetramethyl-5-oxo-1,1a,1b,4,4a,5,7a,7b,8,9-decahydro-9aH-cyclopropa[3,4]benzo[1,2-e]azulen-9a-yl (12-(6,8-difluoro-7-hydroxy-2-oxo-2H-chromene-3-carboxamido)dodecyl)(ethyl)carbamate] here?
A: 7800 nM

Q: And the Kd (mouse PKCη-mVenus)?
A: 8200 nM

Q: What about the Kd (mouse PKCγ-mVenus) of the same compound?
A: 2000 nM

Q: What about the Kd (mouse PKCε-mVenus) of the same compound?
A: 7900 nM

Q: What about the Kd (mouse PKCθ-mVenus) of the same compound?
A: 13200 nM

Q: What about the Kd (mouse PKCβI-mVenus) of the same compound?
A: 900 nM

Q: And the Kd (mouse PKCα-mVenus)?
A: 1600 nM
